In patent publication US8053436B1, “9-(piperazinylalkyl) carbazoles as bax-modulators” (Merck Serono SA, priority 1999, dated 2011):
Structures can show the parent of a compound that is named as a salt.

Tests used:
[1] = target: T1, recombinant Bax (Human Bax-α), mitochondria from mouse liver (Homo sapiens, UniProt Q07812); assay: In vitro assay for cytochrome c release (mitochondria cytochrome c release triggered by Bax activation); assay type: biochemical; conditions: Compounds were tested at 5 μM, 200 nM recombinant Bax
T1 construct: Human Bax-α lacking 20 amino acids at the COOH-terminus; GST (cleaved yes); His-tag (alternative construct); made in house; host or cells: Escherichia coli
T1 sequence (Q07812 1-172 limits assumed): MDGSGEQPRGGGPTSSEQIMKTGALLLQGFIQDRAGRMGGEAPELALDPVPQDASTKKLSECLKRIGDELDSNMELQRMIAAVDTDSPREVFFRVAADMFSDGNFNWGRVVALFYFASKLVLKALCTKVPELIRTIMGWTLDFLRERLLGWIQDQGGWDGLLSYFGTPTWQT
From the text: The cytochrome c bands are scanned and quantified using a Bio-Rad (GS-700 Imaging Densitometer).
(§1) The above set out 2 in vitro assays c) and d) involving the determination of mitochondrial cytochrome c release are based on immunochemical methods using the Western blot analysis. Alternatively, said quantitative cytochrome c determinations could be performed by using spectrophotometric means: • I. by recording the difference between reduced and oxidised cytochrome c by dual wavelength double beam spectrophotometry; • by measuring the rather intensive γ or Soret peak in the spectrum of cytochrome c (ε=100 mM^−1 cm^−1) is used for rapid and quantitative determination of the release of cytochrome c from isolated mitochondria.

[2] = target: T2, Bid-induced Bax activation (mitochondria isolated from HeLa cells) (Homo sapiens, UniProt Q07812); assay: Mitochondria cytochrome c release triggered by Bid-induced Bax activation; assay type: biochemical; conditions: Compounds were tested at 10 μM, 10 nM recombinant Bid
T2 construct: endogenous in cells; host or cells: mitochondria isolated from HeLa cells
T2 sequence (Q07812 whole entry): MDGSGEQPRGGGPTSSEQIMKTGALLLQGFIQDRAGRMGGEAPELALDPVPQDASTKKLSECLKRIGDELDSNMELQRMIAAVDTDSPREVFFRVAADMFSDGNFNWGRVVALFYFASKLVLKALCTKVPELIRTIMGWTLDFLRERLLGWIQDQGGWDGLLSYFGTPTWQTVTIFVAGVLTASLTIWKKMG
Protocol: d) Effect of Compounds according to formula I onto the Release of Cytochrome c Triggered by Bid-Induced Bax Activation (Mitochondria Cytochrome c Release Triggered by Bid-Induced Bax Activation)
Mitochondria isolated from HeLa cells are incubated for 15 min at 30° C. in […] of KCl buffer in the presence or absence of 10 nM recombinant Bid. The various compounds (10 μM) are pre-incubated for 5 min prior to addition of Bid. Following incubation, mitochondria were centrifuged for 5 min at 13000 g at 4° C. and the supernatant is collected for cytochrome c analysis. Cytochrome c is detected by Western blotting. The cytochrome c bands are scanned and quantified using a Bio-Rad (GS-700 Imaging Densitometer).
as §1

[3] = tested on: Sympathetic neurons from superior cervical ganglia (SCG) of newborn rats; assay: Sympathetic neuron culture and survival assay (neuronal survival); assay type: cell-based; conditions: Compounds were tested at 10 μM; rat SCG neurons, NGF deprivation (anti NGF antibody), MTT 24 hours after cell death induction
From the text: as §1
Cell death is induced at day 4 after plating by exposing the culture to medium containing 10 µg/ml of anti NGF antibody (Boehringer Mannheim Corp., Indianapolis, Ind.) and no NGF or arabinosine, in the presence or absence of piperazine derivatives of carbazole inhibitors according to formula I. 24 hours after cell death induction, determination of cell viability is performed by incubation of the culture for 1 hour, at 37° C. in 0.5 mg/ml of 3-(4,5-dimethyl-thiazol-2-yl)2,5diphenyl tetrazolium bromide (MTT). After incubation in MTT, cells are re-suspended in DMSO, transferred to a 96 MTT plate and cell viability is evaluated by measuring optical density at 590 nm.

| melting point | Structure (SMILES) | Neuronal Survival (%) [3] | also measured |
| --- | --- | --- | --- |
| 261 °C (dec.) | O=C(CN1CCN(CC2CCCCC2)CC1)Cn1c2ccc(Br)cc2c2cc(Br)ccc21 (as salt: hydrochloride) [Example 109, (±)-1-[4-(cyclohexylmethyl)piperazin-1-yl]-3-(3,6-dibromocarbazol-9-yl)acetone] |  |  |
| 231 °C (dec.) | O=C(CN1CCN(CC2CCCCC2)CC1)Cn1c2ccccc2c2cc(-c3ccccc3)ccc21 (as salt: hydrochloride) [Example 111, (±)-1-[4-(Cyclohexylmethyl)piperazin-1-yl]-3-(3-phenylcarbazol-9-yl)acetone] |  |  |
| 251 °C (dec.) | OC(CN1CCN(Cc2ccc(F)cc2)CC1)Cn1c2ccccc2c2ccccc21 (racemic) (as salt: HCl) [Example 22, (±)-1-Carbazol-9-yl-3-[4-(4-fluoro-benzyl)-piperazin-1-yl]-propan-2-ol] |  |  |
| 188 °C | OC(CN1CCN(Cc2ccc(F)cc2)CC1)Cn1c2ccccc2c2cc(-c3ccccc3)ccc21 (racemic) (as salt: HCl) [Example 24, (±)-1-[4-(4-Fluoro-benzyl)-piperazin-1-yl]-3-(3-phenyl-carbazol-9-yl)-propan-2-ol] |  |  |
| 295 °C (dec.) | N#Cc1ccc2c(c1)c1cc(C#N)ccc1n2CC(O)CN1CCNCC1 (racemic) (as salt: HCl) [Example 25, (±)-9-(2-Hydroxy-3-piperazin-1-yl-propyl)-carbazole-3,6-dicarbonitrile] |  |  |
| 265 °C | OC(CN1CCN(CCCc2ccccc2)CC1)Cn1c2ccccc2c2ccccc21 (racemic) (as salt: HCl) [Example 31, (±)-1-Carbazol-9-yl-3-[4-(3-phenyl-propyl)-piperazin-1-yl]-propan-2-ol] |  |  |
| 153 °C | O=C(c1ccccc1)N1CCN(CC(O)Cn2c3ccccc3c3ccccc32)CC1 (racemic) (as salt: HCl) [Example 36, (±)-1-[4-(3-Carbazol-9-yl-2-hydroxy-propyl)-piperazin-1-yl]-1-phenyl-methanone] |  |  |
| 239 °C (dec.) | Cc1ccc2c3ccccc3n(CC(O)CN3CCN(Cc4ccccc4)CC3)c2c1 (racemic) (as salt: hydrochloride) [Example 1, (±)-1-(4-Benzyl-piperazin-1-yl)-3-(2-methyl-carbazol-9-yl)-propan-2-ol] |  |  |
| 265 to 270 °C (dec.) | OC(CN1CCN(CC2CCCCC2)CC1)Cn1c2ccccc2c2cc(-c3ccccc3)ccc21 (racemic) (as salt: hydrochloride) [Example 66, (±)-1-(4-Cyclohexylmethylpiperazin-1-yl)-3-(3-phenylcarbazol-9-yl)-propan-2-ol] |  |  |
| 253 °C (dec.) | O=S(=O)(Cc1ccccc1)N1CCN(CC(O)Cn2c3ccc(Br)cc3c3cc(Br)ccc32)CC1 (racemic) (as salt: hydrochloride) [Example 71, (±)-1-[4-(Benzylsulfonyl)piperazin-1-yl]-3-(3,6-dibromo-carbazol-9yl)propan-2-ol] |  |  |
| 287 °C (dec.) | OC(CN1CCN(Cc2ccc(Cl)c(Cl)c2)CC1)Cn1c2ccc(Br)cc2c2cc(Br)ccc21 (racemic) (as salt: hydrochloride) [Example 72, (±)-1-(3,6-Dibromo-carbazol-9-yl)-3-[4-(3,4-dichlorobenzyl)piperazin-1-yl]propan-2-ol] |  |  |
| 302 °C (dec.) | OC(CN1CCN(CC2CCCCC2)CC1)Cn1c2ccc(Cl)cc2c2cc(Cl)ccc21 (racemic) (as salt: hydrochloride) [Example 76, (±)-1-[4-(Cyclohexylmethyl)piperazin-1-yl]-3-(3,6-dichloro-carbazol-9-yl)propan-2-ol] |  |  |
| 192 °C (dec.) | OC(CN1CCN(Cc2ccnc3ccccc23)CC1)Cn1c2ccccc2c2cc(Br)ccc21 (racemic) (as salt: hydrochloride) [Example 106, (±)-1-(3-Bromocarbazol-9-yl)-3-[4-(quinolin-4-ylmethyl)piperazin-1-yl]propan-2-ol] |  |  |
| 70 to 75 °C | OC(CN1CCN(Cc2ccccc2)CC1)Cn1c2ccc(Br)cc2c2cc(Br)ccc21 (racemic) [Example 6, (±)-1-(4-Benzyl-piperazin-1-yl)-3-(3,6-dibromo-carbazol-9-yl)-propan-2-ol] |  |  |
|  | OC(CN1CCN(Cc2ccc(F)cc2)CC1)Cn1c2ccc(Br)cc2c2cc(Br)ccc21 (racemic) [Example 23, (±)-1-(3,6-Dibromo-carbazol-9-yl)-3-[4-(4-fluoro-benzyl)-piperazin-1-yl]-propan-2-ol] | 45% | inhibition at 5 µM [1]: 51%; inhibition at 10 µM [2]: 68% |
|  | OC(CN1CCNCC1)Cn1c2ccccc2c2cc(-c3ccccc3)ccc21 (racemic) [Example 27, (±)-1-(3-Phenylcarbazol-9-yl)-3-piperazin-1-yl-propan-2-ol] | 40% | inhibition at 5 µM [1]: 40%; inhibition at 10 µM [2]: 88% |
|  | OC(CN1CCN(CC2CCCCC2)CC1)Cn1c2ccc(Br)cc2c2cc(Br)ccc21 (racemic) [Example 45, (±)−1-4-Cyclohexylmethylpiperazin-1-yl)-3-(3,6-dibromo-carbazol-9-yl)-propan-2-ol] | 60% | Mitochondria Cytochrome c Release Triggered by Bid-Induced Bax Activation (% Inhibition) [2]: 37% |
|  | OC(CN1CCN(Cc2ccsc2)CC1)Cn1c2ccc(Br)cc2c2cc(Br)ccc21 (racemic) [Example 60, (±)-1-(3,6-Dibromocarbazol-9-yl)-3-[4-(thien-3-ylmethyl)piperazin-1-yl]propan-2-ol] | 40% | inhibition at 10 µM [2]: 60% |
|  | COc1ccc(CN2CCN(CC(O)Cn3c4ccc(Br)cc4c4cc(Br)ccc43)CC2)cc1 (racemic) [Example 62, (±)-1-(3,6-Dibromocarbazol-9-yl)-3-[4-(4-methoxybenzyl)piperazin-1-yl]propan-2-ol] | 30% | inhibition at 10 µM [2]: 99% |
|  | OC(CN1CCN(CCN2CCOCC2)CC1)Cn1c2ccc(Br)cc2c2cc(Br)ccc21 (racemic) [Example 73, (±)-1-(3,6-Dibromo-carbazol-9-yl)-3-[4-(2-morpholin-4-ethyl)piperazin-1-yl]propan-2-ol] | 30% | Mitochondria Cytochrome c Release Triggered by Bid-Induced Bax Activation (% Inhibition) [2]: 74% |
|  | FC(F)(CN1CCNCC1)Cn1c2ccc(Br)cc2c2cc(Br)ccc21 (racemic) [Example 80, (±)-3,6-Dibromo-9-(2,2-difluoro-3-piperazin-1-ylpropyl)-carbazole] | 20% | inhibition at 10 µM [2]: 73% |
|  | OC(CN1CCN(CCN2CCOCC2)CC1)Cn1c2ccc(Cl)cc2c2cc(Cl)ccc21 (racemic) [Example 110, (±)-1-(3,6-Dichlorocarbazol-9-yl)-3-[4-(2-morpholin-4-ethyl)piperazin-1-yl]propan-2-ol] | 30% | Mitochondria Cytochrome c Release Triggered by Bid-Induced Bax Activation (% Inhibition) [2]: 87% |
